# Measured values: PubChem BioAssay (NCI)
#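 These data come from cells grown in 96-well plates and exposed to compound for 48 hours at five concentrations. Here, GI50 denotes the concentration required for 50% inhibition of growth. TGI marks complete inhibition of growth.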
# Assays:
# Test in all cases: DTP human tumour cell line panel, 48 h
# OVCAR-4 ovarian = tested on: OVCAR-4 ovarian
# NCI-H23 lung = tested on: NCI-H23 lung
# NCI-H226 lung = tested on: NCI-H226 lung
# MDA-MB-231 breast = tested on: MDA-MB-231 breast
# UO-31 renal = tested on: UO-31 renal
# MDA-MB-435 = tested on: MDA-MB-435
# OVCAR-3 ovarian = tested on: OVCAR-3 ovarian
# K-562 leukemia = tested on: K-562 leukemia
# EKVX NSCLC = tested on: EKVX NSCLC
# HS 578T breast = tested on: HS 578T breast
Structure (SMILES),TGI (OVCAR-4 ovarian) [µM],TGI (NCI-H23 lung) [µM],TGI (NCI-H226 lung) [µM],TGI (MDA-MB-231 breast) [µM],TGI (UO-31 renal) [µM],TGI (MDA-MB-435) [µM],TGI (OVCAR-3 ovarian) [µM],TGI (K-562 leukemia) [µM],TGI (EKVX NSCLC) [µM],TGI (HS 578T breast) [µM],GI50 (OVCAR-4 ovarian) [µM],GI50 (NCI-H23 lung) [µM],GI50 (NCI-H226 lung) [µM],GI50 (MDA-MB-231 breast) [µM],GI50 (UO-31 renal) [µM],GI50 (MDA-MB-435) [µM],GI50 (OVCAR-3 ovarian) [µM],GI50 (K-562 leukemia) [µM],GI50 (EKVX NSCLC) [µM],GI50 (HS 578T breast) [µM]
CCOC(=O)C1=CNC(C(=O)OCC)C1c1cccn1-c1ccc(Cl)cc1[N+](=O)[O-] (stereo not given),98.3,> 100,50,27.2,> 100,58.7,30.3,85.9,75.9,50.5,–,–,–,–,–,–,–,–,–,–
CN(C)CCNC(=O)c1cccc2c(NCCN(C)C)c3ccccc3nc12,8.68,7.03,3.66,4.58,8.29,7.58,7.63,6.86,8.03,8.57,–,–,–,–,–,–,–,–,–,–
CC(=O)OCCCOCn1c(Cc2ccccc2)c(C)c(=O)[nH]c1=O,> 100,> 100,> 100,> 100,> 100,> 100,> 100,> 100,> 100,> 100,–,–,–,–,–,–,–,–,–,–
COC(=O)CCC(=O)NC1=C(Nc2ccc(OC)cc2)C(=O)c2ccccc2C1=O,24.7,22.7,35.3,27.3,32.1,3.53,12.6,> 86.8,38.3,72.6,–,–,–,–,–,–,–,–,–,–
CC[C@H](O)[C@H](C)C=C1SCCCS1,> 100,> 100,> 100,> 100,> 100,> 100,> 100,> 100,> 100,> 100,–,–,–,–,–,–,–,–,–,–
O=C(Nc1cccc(-n2ccc3c(NC(=O)c4ccccc4)nccc32)c1)Nc1cc(C(F)(F)F)cc(C(F)(F)F)c1,> 50,> 50,16.4,4.73,> 50,3.21,3.18,> 50,> 50,> 50,1.93,1.96,1.66,1.42,2.4,1.23,1.28,1.68,2.63,1.44
CCCN(CCCC(NC(C)=O)C(=O)NCc1ccccc1)C(=O)N(CCCl)N=O (stereo not given),> 85,22.9,40.1,> 100,50,> 100,53.3,87.6,59,> 100,–,–,–,–,–,–,–,–,–,–
Cc1ccsc1/C=N/Nc1nc2ccccc2s1,72.9,> 100,51.9,27.5,> 100,> 100,60.7,34.9,41.9,78.2,–,–,–,–,–,–,–,–,–,–
